# Laboratory results taken from patent US12137691B2, “Method for treating plant seed” (RIJK ZWAAN ZAADTEELT EN ZAADHANDEL B.V., priority 2018, dated 2024).
# Assays:
# [1] = system: fungal growth; experiment: Reducing fungal growth on plant seedlings and plants (general statement); assay type: in vivo; details: general statement in the description, no test details
# [2] = system: Pythium irregulare isolate 779-2010; experiment: Germination of hot water treated spinach seed and survival of seedlings in soil inoculated with Pythium irregulare; assay type: in vivo; details: for effect on the health of the growing plants: coating with only vitamin C (175 or 350 μg per seed)
# Description: A solution of an iron salt, such as for instance Fe(II)SO4, and vitamin C in water is prepared by stirring of the chemicals until a clear, colorless solution is obtained.
# A rotary coater is charged with seeds and the iron salt with vitamin C solution is added to the seeds via a spinning disk.
# The seeds are dried after coating at 25° C./35 RH until the moisture in the seed is equal to the moisture of the seed before treatment with the iron salt solution.
# The effect of the iron salt solution prepared in Example 1 on both germination and survival against Pythium is investigated on hot water treated spinach seeds of the variety Mandril. A suitable protocol for the hot water treatment is described in Extension Factsheet Ohio State University; Sally A. Miller and Melanie L Lewis Ivey; “Hot Water Treatment of Vegetable Seeds to Eradicate Bacterial Plant Pathogens in Organic Production Systems”.
# The hot water treated spinach seeds were coated with an Fe(II)SO4 coating supplemented with vitamin C. Two different concentrations of Fe(II)SO4 and vitamin C in the coating solution were used: 1 μg Fe(II)SO4 per seed and 1.1 molar equivalents (Meq.) vitamin C, and 250 μg Fe(II)SO4 per seed and 1.1 Meq. vitamin C. As a control, hot water treated seeds without coating and untreated seeds were used.
# Seeds were sown in trays. Germination of the seeds was assessed in trays without any inoculum. The effect of the coating on the survival of seedlings was assessed in trays inoculated with Pythium irregulare isolate 779-2010.
# (§1) Trays without the inoculum were prepared by mixing+/−10 L of sowing soil with 1 L of tap water in white trays. In total, 117 sowing holes were made in the trays with a press. To prevent any interaction between treatments, only 1 treatment per tray was sown. For each treatment, 3 replicates of 117 seeds were sown. The seeds were topped with two cups (diameter 12 cm) of sowing soil containing 5 grams of inoculum media. Trays were placed in a controlled climate cell at 20° C., LID->14/10 and a RH of 60%. The number of germinated seeds was counted at 7 days, and the amount of surviving seedlings was counted 7 and 14 days after sowing and inoculation. Trays were physically separated from trays containing Pythium inoculum, to prevent cross-contamination.
# The inoculum was prepared by growing Pythium irregulare on fresh V8 plates for 3 days at 28° C. After incubation, the spores and mycelium were harvested by adding 20 ml of sterile PBS to the plate and scraping it with a sterile spatula. This inoculum was added to the sowing soil.
# as §1, with “with” for “without the”, “treatment 3,” for “treatment, 3”, “(mixed thoroughly in a bucket before topping off).” for “media.”, “inoculation.” for “inoculation. Trays were physically separated from trays containing Pythium inoculum, to prevent cross-contamination.”
# The experiment of Example 2 was repeated with the following modifications:
# the spinach seed used are of the varieties Platypus and Meerkat […]
# [3] = system: Rhizoctonia isolate AU 14/243; experiment: In vitro growth inhibition on PDA agar plates with imbedded coated spinach seeds, Rhizoctonia; assay type: cell-based
# Description: FIG. 4A is a schematic picture of an with Rhizoctonia-infected agar plate (1) comprising untreated seeds (2) and seeds coated with 500 μg/seed Fe(II)SO4 (3). Plates were inoculated with Rhizoctonia in the center of the plates (4). The growth of Rhizoctonia was measured after 1 day, 2 days, and 4 days post-inoculation (dpi).
# (§2) PDA agar plates were prepared in which spinach seeds of the variety Platypus coated with 250 μg Fe(II)SO4 per seed and 1.1 Meq. vitamin C, 500 μg Fe(II)SO4 per seed and 1.1 Meq. vitamin C, or 500 μg Fe(II)SO4 per seed, were imbedded and inoculated with Rhizoctonia isolate AU 14/243 or Fusarium oxysporum isolate MAFF103063.
# [4] = system: damping-off; experiment: Cornsalad seed sown in soil from a field known to suffer from damping-off, healthy seedlings; assay type: in vivo; details: 500 μg Fe(II)SO4 per seed, no vitamin C, 7, 11, 17 and 24 days after sowing
# Description: FIG. 7A is a graph showing the effect of hot water treatment of cornsalad seeds, and subsequent treatment with 500 μg/seed of Fe(II)SO4. The effect is expressed in the percentage of seedlings that are still alive and healthy 7, 11, 17 and 24 days after sowing in soil known to suffer from damping-off.
# Cornsalad seed was coated with 500 μg/Fe(II)SO4 per seed as described in Example 1, except that no vitamin C was added. The seed was sown in soil from a field known to suffer from damping-off. The percentage of healthy seedlings was determined 7, 11, 17 and 24 days after sowing.
# [5] = system: Fusarium oxysporum isolate MAFF103063; experiment: In vitro growth inhibition on PDA agar plates with imbedded coated spinach seeds, Fusarium; assay type: cell-based
# Description: FIG. 4B is a schematic picture of an with Fusarium-infected agar plate (1) comprising untreated seeds (2) and seeds coated with 500 μg/seed Fe(II)SO4 (3). The growth of Fusarium was measured after 2 days, 4 days, and 7 days post-inoculation (dpi).
# as §2
# [6] = system: P. irregulare; experiment: Cornsalad seed sown in soil inoculated with P. irregulare, healthy seedlings; assay type: in vivo, Pythium irregulare; details: 500 μg Fe(II)SO4 per seed, no vitamin C, 7, 11, 17 and 24 days after sowing
# Description: FIG. 7B is a graph showing the effect of hot water treatment of cornsalad seeds, and subsequent treatment with 500 μg/seed of Fe(II)SO4. The effect is expressed in the percentage of seedlings that are still alive and healthy 7, 11, 17 and 24 days after sowing in soil inoculated with P. irregulare.
# The experiment was also performed on the cornsalad seed when sown in soil inoculated with P. irregulare, prepared as described in Example 2. The percentage of healthy seedlings was determined 7, 11, 17 and 24 days after sowing.
# [7] = system: damping-off; experiment: Beetroot seed sown in a field known to suffer from damping-off, healthy seedlings; assay type: in vivo; details: beetroot variety Zeppo, 500 μg Fe(II)SO4 per seed, no vitamin C, 14 and 21 days after sowing
# Description: FIG. 6 is a graph showing the effect of treatment of seeds of the beetroot variety Zeppo with 500 μg/seed of Fe(II)SO4. The effect is expressed in the number of seedlings that are still alive and healthy 14 and 21 days after sowing.
# Seed of the beetroot variety Zeppo was coated with 500 μg/Fe(II)SO4 per seed as described in Example 1, except that no vitamin C was added. The seed was sown in a field known to suffer from damping-off. The number of healthy seedlings was determined 14 days and 21 days after sowing.
# [8] = 4 days post inoculation, 250 μg Fe(II)SO4 per seed and 1.1 Meq. vitamin C, or 500 μg Fe(II)SO4 per seed alone
# [9] = Platypus seed, 250 μg Fe(II)SO4 per seed and 1.1 Meq. vitamin C, or 500 μg Fe(II)SO4 per seed alone
smiles,measurement,setting,value
[Cl][Fe]([Cl])[Cl] [iron(III)chloride],effects in reducing fungal growth on the plant seedlings and plants,[1],good effects
O=S(=O)([O-])[O-].O=S(=O)([O-])[O-].O=S(=O)([O-])[O-].[Fe+3].[Fe+3] [iron(III)sulfate],effects in reducing fungal growth on the plant seedlings and plants,[1],good effects
[Br-].[Br-].[Fe+2] [Iron(II)bromide],effects in reducing fungal growth on the plant seedlings and plants,[1],good effects
[Cl][Fe][Cl] [iron(II)chloride],effects in reducing fungal growth on the plant seedlings and plants,[1],good effects
"O=C1O[C@H]([C@@H](O)CO)C(O)=C1O [vitamin C, reference compound]",effect on the health of the growing plants,"[2]; spinach variety Meerkat, hot water treated",not observed
same,effect on the health of the growing plants,"[2]; spinach variety Platypus, hot water treated",some effect
"O=S(=O)([O-])[O-].[Fe+2] [Fe(II)SO4, iron(II)sulfate]",dose-effect response (seedlings alive and healthy 14 days after sowing),"[2]; spinach varieties Finwhale and Mandril, hot water treated, 50, 100, 150, 200 and 250 μg Fe(II)SO4 per seed",linear dose-effect response
same,doses effective to increase the germination and survival of hot-water treated seed,"[2]; spinach varieties Finwhale and Mandril, dose per seed, dose to match untreated seeds depends on variety and/or batch",≥ 50 µg
same,effect on the health of the plants,"[2]; spinach varieties Platypus and Meerkat, hot water treated, 250 or 500 μg Fe(II)SO4 per seed, with or without 1.1 Meq. vitamin C",positive effect
same,growth of the Rhizoctonia isolate over the plate,[3]; [8],the isolate covered the whole plate
same,inhibition of Rhizoctonia growth (weaker when compared to 500 μg Fe(II)SO4 and vitamin C),[3]; [9],Inhibition was also observed
same,"zone of inhibition around the coated seeds, Rhizoctonia","[3]; after 4 days post-inoculation, 500 μg/seed Fe(II)SO4, not around untreated seeds",zone of inhibition (5) is still visible
same,protection of cornsalad against damping-off (healthy seedlings),[4],protects cornsalad against damping-off
same,growth of the Fusarium isolate over the plate,[5]; [8],the isolate covered the whole plate
same,inhibition of Fusarium growth (weaker when compared to 500 μg Fe(II)SO4 and vitamin C),[5]; [9],Inhibition was also observed
same,"zone of inhibition around the coated seeds, Fusarium","[5]; after 7 days post-inoculation, 500 μg/seed Fe(II)SO4, not around untreated seeds",zone of inhibition (5) is still visible
same,protection of cornsalad against damping-off (healthy seedlings),[6],protects cornsalad against damping-off
same,effects in reducing fungal growth on the plant seedlings and plants,[1],good effects
same,protection of beetroot against damping-off (healthy seedlings),[7],protects beetroot against damping-off
O=S(=O)([O-])[O-].O=S(=O)([O-])[O-].[Fe+2].[NH4+].[NH4+] [iron(II)ammonium sulfate],effects in reducing fungal growth on the plant seedlings and plants,[1],good effects
O=S(=O)([O-])[O-].O=S(=O)([O-])[O-].[Fe+3].[NH4+] [iron(III)ammonium sulfate],effects in reducing fungal growth on the plant seedlings and plants,[1],good effects
[Br-].[Br-].[Br-].[Fe+3] [iron(III)bromide],effects in reducing fungal growth on the plant seedlings and plants,[1],good effects
